From patent US6378981B1, “Surfactant for inkjet service station wiper fluid” (Hewlett-Packard Company, priority 2000, dated 2002)

Tests used:
[1] = Separation of surfactant from PEG400, observed for seven days; assay type: physicochemical; conditions: 1 wt. % solution in PEG400, 50 ml tubes, observed daily for seven days
Procedure: 1 wt. % solutions of C8AO (Hexyl dimethyl amine oxide), C10AO (NN dimethyl octyl amine oxide), C14AO (NN Dimethyl dodecyl amine oxide), […] and C18AO (NN Dimethyl-N-oxide hexadecane amine) with PEG400 were prepared and placed in 50 ml tubes. The tubes were observed daily for seven days. No separation of surfactant from PEG400 was observed.

[2] = Procedure: Non-ionic surfactants (Tergitol 15-S-5, Surfynol465), an amphoteric surfactant (Mackam OCT-50), an anionic surfactant (Dodecylbenzene sulfonate Na) and a cationic surfactant (Cetyl trimethyl ammonium bromide) were tested for solubility in an inkjet test ink having the following formulation.
The pass/fail criteria were the absence or presence of insoluble material on the bottom on the container after three days at room temperature.

[3] = Wetting effectiveness of surfactants on orifice (nozzle) plate; assay type: physicochemical; set-up: key: Good: Wetting is considered “good” when a very thick layer of ink spreads out evenly on the orifice plate
Procedure: To determine an effective surfactant concentration range in a servicing fluid, the following procedure was used. A think uniform coat of test servicing fluid was applied to the nozzle plate. 0.5 μl of drop test ink was then applied to the coated nozzle plate and the maximum dot diameter was then measured.
Wetting is considered “good” when a very thick layer of ink spreads out evenly on the orifice plate.

| SMILES | Separation of surfactant from PEG400 [1] | Compatibility [2] | other results |
| --- | --- | --- | --- |
| CCCCCCCCCCCC[N+](C)(C)[O-] [C14AO, NN Dimethyl dodecyl amine oxide] | No separation | – | – |
| CCCCCC[N+](C)(C)[O-] [Hexyl dimethyl amine oxide] | No separation | Pass | – |
| CCCCCCCC[N+](C)(C)[O-] [Dimethyl Octylamine oxide] | No separation | – | Wetting ([3]; 0.01 wt. % surfactant in PEG 300 servicing fluid): Good; Wetting ([3]; 0.1 wt. % surfactant in PEG 300 servicing fluid): Good; Wetting ([3]; 1.0 wt. % surfactant in PEG 300 servicing fluid): Poor; Wetting ([3]; 2.0 wt. % surfactant in PEG 300 servicing fluid): Poor; Wetting ([3]; 3.0 wt. % surfactant in PEG 300 servicing fluid): Poor; Wetting ([3]; 4.0 wt. % surfactant in PEG 300 servicing fluid): Poor |
| CCCCCCCCCCCCCCCC[N+](C)(C)C.[Br-] [Cetyl trimethyl ammonium bromide] | – | Fail | – |

Continued, in another order:

| Separation of surfactant from PEG400 [1] | SMILES | Compatibility [2] | other results |
| --- | --- | --- | --- |
| No separation | CCCCCCCCCCCCCC[N+](C)(C)[O-] [Myristyl dimethyl amine oxide] | – | – |
| No separation | CCCCCCCCCCCCCCCC[N+](C)(C)[O-] [NN Dimethyl-N-oxide hexadecane amine] | – | – |
